Measurements published in patent US10562908B2, “Ortho substituted phenylpyrazolo- and phenylpyrrolo-pyridazine derivatives having multimodal activity against pain” (priority 2016, dated 2020).
Where two headings read alike, the source gives them in different places.

What was measured:
human μ-opioid receptor = molecular target: T1, human μ-opioid receptor (Homo sapiens, UniProt P35372); assay: Human μ-opioid receptor radioligand assay ([3H]-DAMGO); assay type: binding
T1 construct: expressed in transfected cells; host or cells: CHO-K1
T1 sequence (P35372 whole entry): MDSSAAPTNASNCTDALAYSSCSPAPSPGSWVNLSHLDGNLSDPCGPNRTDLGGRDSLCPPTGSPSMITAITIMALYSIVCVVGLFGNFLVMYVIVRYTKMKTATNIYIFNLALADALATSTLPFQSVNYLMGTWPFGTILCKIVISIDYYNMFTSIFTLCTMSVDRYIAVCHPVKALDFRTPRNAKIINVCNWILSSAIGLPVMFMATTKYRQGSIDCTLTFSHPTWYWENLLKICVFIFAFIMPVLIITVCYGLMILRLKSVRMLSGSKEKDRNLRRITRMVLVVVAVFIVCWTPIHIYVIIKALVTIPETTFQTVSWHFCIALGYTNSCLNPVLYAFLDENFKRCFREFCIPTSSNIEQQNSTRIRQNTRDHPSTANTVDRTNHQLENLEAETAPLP
Protocol: Human μ-Opioid Receptor Radioligand Assay
To investigate binding properties of test compounds to human μ-opioid receptor, transfected CHO-K1 cell membranes and [^3H]-DAMGO (Perkin Elmer, ES-542-C), as the radioligand, were used. The assay was carried out with 20 μg of membrane suspension, 1 nM of [^3H]-DAMGO in either absence or presence of either buffer or 10 μM Naloxone for total and non-specific binding, respectively. Binding buffer contained Tris-HCl 50 mM, MgCl2 5 mM at pH 7.4. Plates were incubated at 27° C. for 60 minutes. After the incubation period, the reaction mix was then transferred to MultiScreen HTS, FC plates (Millipore), filtered and plates were washed 3 times with ice-cold 10 mM Tris-HCL (pH 7.4). Filters were dried and counted at approximately 40% efficiency in a MicroBeta scintillation counter (Perkin-Elmer) using EcoScint liquid scintillation cocktail, preferably, transfected CHO-K1 cell membranes (20 μg) were incubated with 1 nM of [^3H]-DAMGO in assay buffer containing Tris-HCl 50 mM, MgCl2 5 mM at pH 7.4. NBS (non-specific binding) was measured by adding 10 μM Naloxone. The binding of the test compound was measured at five different concentrations. Plates were incubated at 27° C. for 60 minutes. After the incubation period, the reaction mix was then transferred to MultiScreen HTS, FC plates (Millipore), filtered and plates were washed 3 times with ice-cold 10 mM Tris-HCL (pH 7.4). Filters were dried and counted at approximately 40% efficiency in a MicroBeta scintillation counter (Perkin-Elmer) using EcoScint liquid scintillation cocktail.

[1] = molecular target: Human α2δ-1 subunit of Cav2.2 calcium channel (Homo sapiens, UniProt P54289); assay: Human α2δ-1 subunit of Cav2.2 calcium channel assay ([3H]-Gabapentin); assay type: binding
Chain of Human α2δ-1 subunit of Cav2.2 calcium channel (P54289 25-1103): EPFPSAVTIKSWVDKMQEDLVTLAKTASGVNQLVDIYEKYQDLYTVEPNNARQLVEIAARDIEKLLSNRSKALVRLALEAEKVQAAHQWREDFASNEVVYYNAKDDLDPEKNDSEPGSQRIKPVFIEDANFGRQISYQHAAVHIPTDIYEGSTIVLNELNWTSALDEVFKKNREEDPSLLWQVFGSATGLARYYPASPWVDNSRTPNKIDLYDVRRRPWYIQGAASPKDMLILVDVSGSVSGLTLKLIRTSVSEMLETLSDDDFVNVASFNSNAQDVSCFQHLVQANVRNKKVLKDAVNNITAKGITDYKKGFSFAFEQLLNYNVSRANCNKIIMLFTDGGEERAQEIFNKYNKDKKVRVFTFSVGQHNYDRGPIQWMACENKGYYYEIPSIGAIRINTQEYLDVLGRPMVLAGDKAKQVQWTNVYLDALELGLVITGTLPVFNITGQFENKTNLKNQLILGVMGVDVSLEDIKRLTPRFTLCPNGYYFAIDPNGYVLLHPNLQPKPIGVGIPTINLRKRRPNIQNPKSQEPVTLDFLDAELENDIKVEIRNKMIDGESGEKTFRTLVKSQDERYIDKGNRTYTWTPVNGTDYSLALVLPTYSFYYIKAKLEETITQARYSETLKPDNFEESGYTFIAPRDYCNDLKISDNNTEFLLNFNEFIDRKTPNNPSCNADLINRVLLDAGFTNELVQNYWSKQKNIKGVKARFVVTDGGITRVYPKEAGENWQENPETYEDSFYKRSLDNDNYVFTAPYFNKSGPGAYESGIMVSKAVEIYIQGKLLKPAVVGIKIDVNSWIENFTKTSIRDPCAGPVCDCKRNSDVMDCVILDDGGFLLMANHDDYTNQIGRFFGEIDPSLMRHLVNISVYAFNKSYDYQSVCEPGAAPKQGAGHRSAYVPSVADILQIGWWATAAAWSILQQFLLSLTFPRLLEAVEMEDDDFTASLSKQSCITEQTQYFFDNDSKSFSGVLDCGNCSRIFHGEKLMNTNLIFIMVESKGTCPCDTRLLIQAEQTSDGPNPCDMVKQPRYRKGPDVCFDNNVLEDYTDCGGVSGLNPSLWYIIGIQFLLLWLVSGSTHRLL
Protocol: Human α2δ-1 Subunit of Cav2.2 Calcium Channel Assay
Human α2δ-1 enriched membranes (2.5 μg) were incubated with 15 nM of radiolabeled [3H]-Gabapentin in assay buffer containing Hepes-KOH 10 mM, pH 7.4. NSB (non specific binding) was measured by adding 10 μM pregabalin. After 60 min incubation at 27° C., binding reaction was terminated by filtering through Multiscreen GF/C (Millipore) presoaked in 0.5% polyethyleneimine in Vacuum Manifold Station, followed by 3 washes with ice-cold filtration buffer containing 50 mM Tris-HCl, pH 7.4. Filter plates were dried at 60° C. for 1 hour and 30 μl of scintillation cocktail were added to each well before radioactivity reading. Readings were performed in a Trilux 1450 Microbeta radioactive counter (Perkin Elmer), i.e. Human α2δ-1 enriched membranes (2.5 μg) were incubated with 15 nM of radiolabeled [3H]-Gabapentin in assay buffer containing Hepes-KOH 10 mM, pH 7.4. NSB (non specific binding) was measured by adding 10 μM pregabalin. The binding of the test compound was measured at five different concentrations. After 60 min incubation at 27° C., binding reaction was terminated by filtering through Multiscreen GF/C (Millipore) presoaked in 0.5% polyethyleneimine in Vacuum Manifold Station, followed by 3 washes with ice-cold filtration buffer containing 50 mM Tris-HCl, pH 7.4. Filter plates were dried at 60° C. for 1 hour and 30 μl of scintillation cocktail were added to each well before radioactivity reading. Readings were performed in a Trilux 1450 Microbeta radioactive counter (Perkin Elmer).

[2] = transfected CHO-K1 cell membranes, 1 nM [3H]-DAMGO, read-out: Binding μ (Ki)
[3] = human α2δ-1 enriched membranes, 15 nM [3H]-Gabapentin, read-out: Binding α2δ-1 (Ki)

Row | SMILES | Ki (human μ-opioid receptor; [2]) | Ki [1, 3] | Ki (human μ-opioid receptor) | Ki [1]
1 | Cc1nnc(N(C)C)c2nn(-c3ccccc3OC3CCN(CCc4ccccc4)C3)c(C)c12 (centres unmarked) [Example 55, N,N,3,4-tetramethyl-2-(2-((1-phenethylpyrrolidin-3-yl)oxy)phenyl)-2H-pyrazolo[3,4-d]pyridazin-7-amine] | – | – | 100 to 500 nM | 500 to 5000 nM
2 | Cc1nnc(N(C)C)c2nn(-c3ccccc3OC(CCNC3CC3)c3ccccc3)c(C)c12 (centres unmarked) [Example 27, 2-(2-(3-(cyclopropylamino)-1-phenylpropoxy)phenyl)-N,N,3,4-tetramethyl-2H-pyrazolo[3,4-d]pyridazin-7-amine] | – | – | 100 to 500 nM | 500 to 5000 nM
3 | CCNCCC(Oc1ccccc1-n1nc2c(N(C)C)nnc(C)c2c1C)c1ccccc1 (centres unmarked) [Example 1, 2-(2-(3-(Ethylamino)-1-phenylpropoxy)phenyl)-N,N,3,4-tetramethyl-2H-pyrazolo[3,4-d]pyridazin-7-amine] | – | – | 100 to 500 nM | 500 to 5000 nM
4 | CNCCCC(Oc1ccccc1-n1nc2c(N(C)C)nnc(C)c2c1C)c1ccccc1 (centres unmarked) [Example 46, N,N,3,4-tetramethyl-2-(2-(4-(methylamino)-1-phenylbutoxy)phenyl)-2H-pyrazolo[3,4-d]pyridazin-7-amine] | > 500 nM | 500 to 5000 nM | – | –
5 | CNCCC(Oc1ccccc1-n1nc2c(Nc3ccccc3)nnc(C)c2c1C)c1ccccc1 (centres unmarked) [Example 9, 3,4-dimethyl-2-(2-(3-(methylamino)-1-phenylpropoxy)phenyl)-N-phenyl-2H-pyrazolo[3,4-d]pyridazin-7-amine] | – | – | 100 to 500 nM | > 5000 nM
6 | Cc1nnc(N(C)C)c2nn(-c3ccccc3OCC3CCN(Cc4ccccc4)CC3)c(C)c12 [Example 57, 2-(2-((1-benzylpiperidin-4-yl)methoxy)phenyl)-N,N,3,4-tetramethyl-2H-pyrazolo[3,4-c]pyridazin-7-amine] | > 500 nM | > 5000 nM | – | –
7 | CNCCC(Oc1ccccc1-n1nc2c(N(C)C)nnc(C)c2c1C)c1cccc(O)c1 (centres unmarked) [Example 79, 3-(1-(2-(7-(Dimethylamino)-3,4-dimethyl-2H-pyrazolo[3,4-d]pyridazin-2-yl)phenoxy)-3-(methylamino)propyl)phenol] | – | – | 100 to 500 nM | 500 to 5000 nM
8 | Cc1nnc(N(C)C)c2nn(-c3ccccc3OCC3CCN(CCc4ccccc4)CC3)c(C)c12 [Example 58, N,N,3,4-tetramethyl-2-(2-((1-phenethylpiperidin-4-yl)methoxy)phenyl)-2H-pyrazolo[3,4-d]pyridazin-7-amine] | – | – | < 100 nM | > 5000 nM
9 | Cc1nnc(N(C)C)c2nn(-c3ccccc3OC3CCNC3)c(C)c12 (centres unmarked) [Example 50, N,N,3,4-Tetramethyl-2-(2-(pyrrolidin-3-yloxy)phenyl)-2H-pyrazolo[3,4-d]pyridazin-7-amine] | > 500 nM | > 5000 nM | – | –
10 | CNCCC(Oc1ccccc1-n1nc2c(N(C)C)nnc(C)c2c1C)c1cccc(F)c1 (centres unmarked) [Example 44, 2-(2-(1-(3-fluorophenyl)-3-(methylamino)propoxy)phenyl)-N,N,3,4-tetramethyl-2H-pyrazolo[3,4-d]pyridazin-7-amine] | – | – | 100 to 500 nM | < 500 nM

Continued, in another order:

Row | Ki (human μ-opioid receptor; [2]) | Ki [1, 3] | SMILES | Ki (human μ-opioid receptor) | Ki [1]
11 | > 500 nM | > 5000 nM | CNCCC(Oc1ccccc1-n1nc2c(Cc3noc(C)n3)nnc(C)c2c1C)c1ccccc1 (centres unmarked) [Example 64, 3-(2-(3,4-Dimethyl-7-((5-methyl-1,2,4-oxadiazol-3-yl)methyl)-2H-pyrazolo[3,4-d]pyridazin-2-yl)phenoxy)-N-methyl-3-phenylpropan-1-amine] | – | –
12 | > 500 nM | 500 to 5000 nM | CNCC(Oc1ccccc1-n1nc2c(N(C)C)nnc(C)c2c1C)c1ccccc1 (centres unmarked) [Example 67, N,N,3,4-Tetramethyl-2-(2-(2-(methylamino)-1-phenylethoxy)phenyl)-2H-pyrazolo[3,4-d]pyridazin-7-amine] | – | –
13 | > 500 nM | > 5000 nM | Cc1nnc(N(C)C)c2nn(-c3ccccc3OCC3CNCc4ccccc43)c(C)c12 (centres unmarked) [Example 30, N,N,3,4-tetramethyl-2-(2-((1,2,3,4-tetrahydroisoquinolin-4-yl)methoxy)phenyl)-2H-pyrazolo[3,4-d]pyridazin-7-amine] | – | –
14 | > 500 nM | > 5000 nM | CNCCC(Oc1ccccc1-n1nc2cnnc(C)c2c1C)c1ccccc1 (centres unmarked) [Example 66, 3-(2-(3,4-Dimethyl-2H-pyrazolo[3,4-d]pyridazin-2-yl)phenoxy)-N-methyl-3-phenylpropan-1-amine] | – | –
15 | > 500 nM | 500 to 5000 nM | CCOc1ccc(OC(CCNC)c2ccccc2)c(-n2nc3c(N(C)C)nnc(C)c3c2C)c1 (centres unmarked) [Example 89, 2-(5-ethoxy-2-(3-(methylamino)-1-phenylpropoxy)phenyl)-N,N,3,4-tetramethyl-2H-pyrazolo[3,4-d]pyridazin-7-amine] | – | –
16 | > 500 nM | 500 to 5000 nM | CNCCC(Oc1ccccc1-n1nc2c(N3CCCC3)nnc(C)c2c1C)c1ccccc1 (centres unmarked) [Example 36, 3-(2-(3,4-dimethyl-7-(pyrrolidin-1-yl)-2H-pyrazolo[3,4-d]pyridazin-2-yl)phenoxy)-N-methyl-3-phenylpropan-1-amine] | – | –
17 | > 500 nM | 500 to 5000 nM | Cc1nnc(N(C)C)c2nn(-c3ccccc3O[C@H](c3ccccc3)[C@@H]3CNCCO3)c(C)c12 [Example 49, N,N,3,4-tetramethyl-2-(2-((R)-((S)-morpholin-2-yl)(phenyl)methoxy)phenyl)-2H-pyrazolo[3,4-d]pyridazin-7-amine] | – | –
18 | > 500 nM | 500 to 5000 nM | CNCCC(Oc1ccccc1-n1nc2c(N(C)C)nnc(C)c2c1C)c1cc(F)cc(F)c1 (centres unmarked) [Example 48, 2-(2-(1-(3,5-difluorophenyl)-3-(methylamino)propoxy)phenyl)-N,N,3,4-tetramethyl-2H-pyrazolo[3,4-d]pyridazin-7-amine] | – | –
19 | > 500 nM | 500 to 5000 nM | Cc1nnc(N(C)C)c2nn(-c3ccccc3OC(CCN)c3ccccc3)c(C)c12 (centres unmarked) [Example 38, 2-(2-(3-amino-1-phenylpropoxy)phenyl)-N,N,3,4-tetramethyl-2H-pyrazolo[3,4-d]pyridazin-7-amine] | – | –
20 | > 500 nM | 500 to 5000 nM | CNCCC(Oc1ccccc1-n1nc2c(N(C)C)nnc(C)c2c1C)c1ccc(C#N)cc1 (centres unmarked) [Example 15, 4-(1-(2-(7-(dimethylamino)-3,4-dimethyl-2H-pyrazolo[3,4-d]pyridazin-2-yl)phenoxy)-3-(methylamino)propyl)benzonitrile] | – | –
21 | > 500 nM | 500 to 5000 nM | CNCCC(Oc1ccccc1-n1nc2c(N(C)C)nnc(C)c2c1C)c1cccc(C#N)c1 (centres unmarked) [Example 14, 3-(1-(2-(7-(dimethylamino)-3,4-dimethyl-2H-pyrazolo[3,4-d]pyridazin-2-yl)phenoxy)-3-(methylamino)propyl)benzonitrile] | – | –
22 | > 500 nM | 500 to 5000 nM | CNCCC(Oc1ccccc1-n1nc2c(N(C)C)nnc(C)c2c1C)c1ccc(C(N)=O)cc1 (centres unmarked) [Example 92, 4-(1-(2-(7-(dimethylamino)-3,4-dimethyl-2H-pyrazolo[3,4-d]pyridazin-2-yl)phenoxy)-3-(methylamino)propyl)benzamide] | – | –
23 | > 500 nM | 500 to 5000 nM | CNCCC(Oc1ccccc1-n1nc2c(N(C)C)nnc(C)c2c1C)c1cccc(C(N)=O)c1 (centres unmarked) [Example 91, 3-(1-(2-(7-(Dimethylamino)-3,4-dimethyl-2H-pyrazolo[3,4-d]pyridazin-2-yl)phenoxy)-3-(methylamino)propyl)benzamide] | – | –
24 | > 500 nM | > 5000 nM | Cc1nnc(N(C)C)c2nn(-c3ccccc3OC(Cc3ccccc3)CN(C)Cc3ccccc3)c(C)c12 (centres unmarked) [Example 74, 2-(2-((1-(Benzyl(methyl)amino)-3-phenylpropan-2-yl)oxy)phenyl)-N,N,3,4-tetramethyl-2H-pyrazolo[3,4-d]pyridazin-7-amine] | – | –
25 | > 500 nM | > 5000 nM | Cc1nnc(N(C)C)c2nn(-c3ccccc3OC3CCN(C)C3)c(C)c12 (centres unmarked) [Example 53, N,N,3,4-tetramethyl-2-(2-((1-methylpyrrolidin-3-yl)oxy)phenyl)-2H-pyrazolo[3,4-d]pyridazin-7-amine] | – | –
